Measurements published in ChEMBL document CHEMBL1201862, “PubChem BioAssay data set” (2004).
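These data come from cells grown in 96-well plates and exposed to compound for 48 hours at five concentrations. GI50 is the concentration that inhibits growth by half.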 Activity calls are given as the source filed them. No stated cut-off is given here; in the data, active = GI50 up to about 1.1 µM and inactive = higher.

Key:
Assay in all cases: inhibition of tumour cell growth, NCI panel, 48 h
SF-268 = system: SF-268
BT-549 = system: BT-549
SK-MEL-28 = system: SK-MEL-28
SK-OV-3 = system: SK-OV-3
NCI-H23 = system: NCI-H23
SK-MEL-5 = system: SK-MEL-5
UACC-257 = system: UACC-257
HOP-62 = system: HOP-62
HOP-92 = system: HOP-92
M14 = system: M14
LOX IMVI = system: LOX IMVI
CCRF-CEM = system: CCRF-CEM
MCF7 = system: MCF7
NCI-H226 = system: NCI-H226
786-0 = system: 786-0
TK-10 = system: TK-10
DU-145 = system: DU-145
COLO 205 = system: COLO 205
MDA-N = system: MDA-N
RPMI-8226 = system: RPMI-8226
ACHN = system: ACHN
Malme-3M = system: Malme-3M
OVCAR-8 = system: OVCAR-8
NCI/ADR-RES = system: NCI/ADR-RES
EKVX = system: EKVX
SK-MEL-2 = system: SK-MEL-2
SR = system: SR
Hs-578T = system: Hs-578T
A498 = system: A498
HL-60 = system: HL-60
OVCAR-3 = system: OVCAR-3
MOLT-4 = system: MOLT-4
SNB-19 = system: SNB-19
CAKI-1 = system: CAKI-1
SF-295 = system: SF-295
OVCAR-5 = system: OVCAR-5
NCI-H460 = system: NCI-H460
RXF 393 = system: RXF 393
OVCAR-4 = system: OVCAR-4
U-251 = system: U-251
IGROV-1 = system: IGROV-1
NCI-H522 = system: NCI-H522
KM12 = system: KM12
SW-620 = system: SW-620
A549 = system: A549
HCT-15 = system: HCT-15
SNB-75 = system: SNB-75
PC-3 = system: PC-3
K562 = system: K562
SF-539 = system: SF-539
UO-31 = system: UO-31
SN12C = system: SN12C
T47D = system: T47D
HCT-116 = system: HCT-116
HT-29 = system: HT-29
HCC 2998 = system: HCC 2998
MDA-MB-231 = system: MDA-MB-231
UACC-62 = system: UACC-62
MDA-MB-435 = system: MDA-MB-435

SMILES: Cn1c2ccc3cc2c(=S)c2cc(ccc21)OCCOCCOCCOCCOCCOCCO3
- GI50 (SF-268): > 10 µM (inactive)
- GI50 (BT-549): > 10 µM (inactive)
- GI50 (SK-MEL-28): > 10 µM (inactive)
- GI50 (SK-OV-3): > 10 µM (inactive)
- GI50 (NCI-H23): > 10 µM (inactive)
- GI50 (SK-MEL-5): > 10 µM (inactive)
- GI50 (UACC-257): > 10 µM (inactive)
- GI50 (HOP-62): > 10 µM (inactive)
- GI50 (HOP-92): > 10 µM (inactive)
- GI50 (M14): > 10 µM (inactive)
- GI50 (LOX IMVI): > 10 µM (inactive)
- GI50 (CCRF-CEM): > 10 µM (inactive)
- GI50 (MCF7): > 10 µM (inactive)
- GI50 (NCI-H226): > 10 µM (inactive)
- GI50 (786-0): > 10 µM (inactive)
- GI50 (TK-10): > 10 µM (inactive)
- GI50 (DU-145): > 10 µM (inactive)
- GI50 (COLO 205): > 10 µM (inactive)
- GI50 (MDA-N): > 10 µM (inactive)
- GI50 (RPMI-8226): > 10 µM (inactive)
- GI50 (ACHN): > 10 µM (inactive)
- GI50 (Malme-3M): > 10 µM (inactive)
- GI50 (OVCAR-8): > 10 µM (inactive)
- GI50 (NCI/ADR-RES): > 10 µM (inactive)
- GI50 (EKVX): > 10 µM (inactive)
- GI50 (SK-MEL-2): > 10 µM (inactive)
- GI50 (SR): > 10 µM (inactive)
- GI50 (Hs-578T): > 10 µM (inactive)
- GI50 (A498): > 10 µM (inactive)
- GI50 (HL-60): > 10 µM (inactive)
- GI50 (OVCAR-3): > 10 µM (inactive)
- GI50 (MOLT-4): > 10 µM (inactive)
- GI50 (SNB-19): > 10 µM (inactive)
- GI50 (CAKI-1): > 10 µM (inactive)
- GI50 (SF-295): > 10 µM (inactive)
- GI50 (OVCAR-5): > 10 µM (inactive)
- GI50 (NCI-H460): > 10 µM (inactive)
- GI50 (RXF 393): > 10 µM (inactive)
- GI50 (OVCAR-4): > 10 µM (inactive)
- GI50 (U-251): > 10 µM (inactive)
- GI50 (IGROV-1): > 10 µM (inactive)
- GI50 (NCI-H522): > 10 µM (inactive)
- GI50 (KM12): > 10 µM (inactive)
- GI50 (SW-620): > 10 µM (inactive)
- GI50 (A549): > 10 µM (inactive)
- GI50 (HCT-15): > 10 µM
- GI50 (SNB-75): > 10 µM (inactive)
- GI50 (PC-3): > 10 µM (inactive)
- GI50 (K562): > 10 µM (inactive)
- GI50 (SF-539): > 10 µM (inactive)
- GI50 (UO-31): > 10 µM (inactive)
- GI50 (SN12C): > 10 µM (inactive)
- GI50 (T47D): > 10 µM (inactive)
- GI50 (HCT-116): > 10 µM (inactive)
- GI50 (HT-29): > 10 µM (inactive)
- GI50 (HCC 2998): > 10 µM (inactive)

SMILES: [N-]=[N+]=C(C(=O)CN1CCCC1=O)S(=O)(=O)c1ccccc1
- GI50 (SF-268): > 100 µM (inactive)
- GI50 (BT-549): > 100 µM (inactive)
- GI50 (SK-MEL-28): > 100 µM (inactive)
- GI50 (NCI-H23): > 100 µM (inactive)
- GI50 (SK-MEL-5): > 100 µM (inactive)
- GI50 (UACC-257): > 100 µM (inactive)
- GI50 (MDA-MB-231): > 100 µM (inactive)
- GI50 (HOP-62): > 100 µM (inactive)
- GI50 (M14): > 100 µM (inactive)
- GI50 (LOX IMVI): > 100 µM (inactive)
- GI50 (CCRF-CEM): > 100 µM (inactive)
- GI50 (MCF7): > 100 µM (inactive)
- GI50 (NCI-H226): > 100 µM (inactive)
- GI50 (786-0): > 100 µM (inactive)
- GI50 (TK-10): > 100 µM (inactive)
- GI50 (DU-145): > 100 µM (inactive)
- GI50 (COLO 205): > 100 µM (inactive)
- GI50 (MDA-N): > 100 µM (inactive)
- GI50 (RPMI-8226): > 100 µM (inactive)
- GI50 (ACHN): > 100 µM (inactive)
- GI50 (Malme-3M): > 100 µM (inactive)
- GI50 (UACC-62): > 100 µM (inactive)
- GI50 (OVCAR-8): > 100 µM (inactive)
- GI50 (NCI/ADR-RES): > 100 µM (inactive)
- GI50 (EKVX): > 100 µM (inactive)
- GI50 (SK-MEL-2): > 100 µM (inactive)
- GI50 (SR): > 100 µM (inactive)
- GI50 (Hs-578T): > 100 µM (inactive)
- GI50 (HL-60): > 100 µM (inactive)
- GI50 (OVCAR-3): > 100 µM (inactive)
- GI50 (MOLT-4): > 100 µM (inactive)
- GI50 (SNB-19): > 100 µM (inactive)
- GI50 (SF-295): > 100 µM (inactive)
- GI50 (OVCAR-5): > 100 µM (inactive)
- GI50 (NCI-H460): > 100 µM (inactive)
- GI50 (RXF 393): > 100 µM (inactive)
- GI50 (U-251): > 100 µM (inactive)
- GI50 (IGROV-1): > 100 µM (inactive)
- GI50 (NCI-H522): > 100 µM (inactive)
- GI50 (KM12): > 100 µM (inactive)
- GI50 (MDA-MB-435): > 100 µM (inactive)
- GI50 (SW-620): > 100 µM (inactive)
- GI50 (A549): > 100 µM (inactive)
- GI50 (HCT-15): > 100 µM
- GI50 (SNB-75): > 100 µM (inactive)
- GI50 (PC-3): > 100 µM (inactive)
- GI50 (K562): > 100 µM (inactive)
- GI50 (SF-539): > 100 µM (inactive)
- GI50 (UO-31): > 100 µM (inactive)
- GI50 (SN12C): > 100 µM (inactive)
- GI50 (HCT-116): > 100 µM (inactive)
- GI50 (HT-29): > 100 µM (inactive)
- GI50 (HCC 2998): > 100 µM (inactive)
